pEC50: −log10 of the molar value.
Molecular target: T1, hmGluR4 (Homo sapiens, UniProt Q14833)
T1 construct: host or cells: HEK293T
Assay: HEK-293 mGluR4 cells cAMP assay with EC20 L-glutamate (HTRF)
Type: cell-based
Details: positive allosteric activity at EC20 L-glutamate, 10 μM forskolin, HEK293T mGluR4 cells, read-out: hrmGluR4/HEK293T-hmGluR4 (EC50)
Experimental: HEK-293 mGluR4 Cells cAMP Assay with EC20 L-Glutamate
Using mGluR4 suspension cell format, 10 μM Forskolin (final conc.) used to induce the production of cAMP.
Test the positive allosteric activity of the compounds of the invention at EC20 (2.3 μM for mGluR4 and 4.3 μM for mGluR6) L-Glutamate,
cAMP dymanic2 kit is intended for the direct quantitative determination of cAMP and its principle is based on HTRF technology.
Cell Preparation: split cells at 80%-90% confluence. The following day, rinse the cells with DMEM without GlutaMax and change to Glutamine Starvation Media. Incubate overnight.
Prepare compound plate: Perform compound serial dilution (uses Matrix 4341 plate), using the Bravo liquid handling platform protocol (compound serial dilution) which adds DMSO to columns 1-24 (except cols. 3 and 13). Serial dilute compounds located in columns 3 and 13 at a 1:3 ratio; 10 points (10 ul of 3 mM compound into 20 ul DMSO). Use the Bravo liquid handling platform to transfer 1 ul from the serial dilution plate into Matrix 4314 plate to create stamp plates.
Dilute 20 mM Forskolin (in DMSO) stock solution in HBSS buffer to make a 20 uM solution (forskolin buffer; 2× solution). To the forskolin buffer, add glutamate to a concentration of 8 uM (compound dilution buffer; 2×EC20 glutamate and forskolin).
Using a multidrop, add 50 ul/well of compound dilution buffer to columns 1-22 of the 2 ul compound stamp plate. Columns 23 and 24 receive forskolin buffer containing 400 uM glutamate (EC100 glutamate; 2× solution). Columns 1 and 2 receive compound dilution buffer containing EC20 glutamate, which is the basal control. Add a glutamate dose response to row P of compound plate. Prepare the dose response by serial diluting glutamate at a 1:3 ratio in forskolin buffer starting at 2 mM glutamate (2×). Dilute the glutamate 9 times and transfer to compound plate.
Harvest cells: Rinse cells with pre-warmed HBSS-10 mM HEPES (without Ca Mg) and dissociate the cells from the flask with versene. Centrifuge the cells, remove the supernatant and suspend in pre-warmed HBSS+10 mM Hepes. Count the cells and centrifuge. Remove the supernatant and suspend the cells in HBSS+Hepes (with Ca Mg) at a density of 400,000 cells/ml.
Dispense 5 ul from the diluted compound plate into Greiner low volume cell plate using the Bravo liquid handling platform. Using a Multidrop with the small tubing cassette, dispense 5 ul of cells (2000 cells/well) onto the compounds contained in the low volume plates. Incubate the cells at 37° C., 5% CO2 for 30 minutes in the incubator.
Prepare cAMP-d2 and anti-cAMP-Crytate according to the instructions for the two step assay (see Cisbio manual) and add 10 ul of the mixed reagent to each well of the assay plate using the Multidrop. Incubate at room temperature for 60 minutes and read on the Envision plate reader using the mGluR low volume cAMP HTRF 384 well protocol. The readout is the calculated fluorescence ratio ([…]*10000).

T1 sequence (Q14833 33-912): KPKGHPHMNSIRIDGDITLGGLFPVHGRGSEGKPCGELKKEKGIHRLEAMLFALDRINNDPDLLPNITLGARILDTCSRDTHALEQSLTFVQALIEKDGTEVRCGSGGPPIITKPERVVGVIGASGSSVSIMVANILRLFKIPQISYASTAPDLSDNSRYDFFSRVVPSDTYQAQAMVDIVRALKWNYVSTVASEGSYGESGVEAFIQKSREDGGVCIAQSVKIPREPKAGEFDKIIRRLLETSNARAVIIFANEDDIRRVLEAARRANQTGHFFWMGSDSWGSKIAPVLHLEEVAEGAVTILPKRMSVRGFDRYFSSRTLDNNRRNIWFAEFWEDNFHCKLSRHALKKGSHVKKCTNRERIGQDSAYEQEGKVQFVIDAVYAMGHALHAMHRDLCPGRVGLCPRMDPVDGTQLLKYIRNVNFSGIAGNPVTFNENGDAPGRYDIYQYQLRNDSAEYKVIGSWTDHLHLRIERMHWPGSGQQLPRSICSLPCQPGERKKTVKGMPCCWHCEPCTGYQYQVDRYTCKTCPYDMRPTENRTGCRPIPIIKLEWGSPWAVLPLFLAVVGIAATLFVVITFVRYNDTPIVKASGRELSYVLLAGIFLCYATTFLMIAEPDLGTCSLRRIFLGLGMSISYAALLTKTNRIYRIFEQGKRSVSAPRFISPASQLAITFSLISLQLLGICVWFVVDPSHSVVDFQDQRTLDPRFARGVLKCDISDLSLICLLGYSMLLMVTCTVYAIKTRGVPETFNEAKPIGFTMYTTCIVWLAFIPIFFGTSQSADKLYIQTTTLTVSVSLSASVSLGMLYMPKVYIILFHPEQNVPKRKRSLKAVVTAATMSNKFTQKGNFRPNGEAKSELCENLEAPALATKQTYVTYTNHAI

| SMILES | pEC50 |
| --- | --- |
| c1ccc(-c2nc3ccccc3nc2-c2ccnc3ccccc23)cc1 [Compound 1, 2-Phenyl-3-quinolin-4-yl-quinoxaline] | > 6.00 |
| OC1CCN(c2nc3ccccc3nc2-c2ccccc2)CC1 [Compound 3, 1-(3-Phenyl-quinoxalin-2-yl)-piperidin-4-ol] | > 6.00 |
| Cc1cccc2nc(-c3ccccc3)c(-c3ccccc3)nc12 [Compound 5, 5-Methyl-2,3-diphenyl-quinoxaline] | 5.00 to 6.00 |
| c1ccc(-c2nc3ccccc3nc2-c2cccc3cccnc23)cc1 [Compound 6, 2-Phenyl-3-quinolin-8-yl-quinoxaline] | 5.00 to 6.00 |
| CC(=O)c1cccc2nc(-c3ccccc3)c(-c3ccccc3)nc12 [Compound 7, 1-(2,3-Diphenyl-quinoxalin-5-yl)-ethanone] | 5.00 to 6.00 |
| c1ccc(-c2nc3c(nc2-c2ccccc2)CCCC3)cc1 [Compound 8, 2,3-Diphenyl-5,6,7,8-tetrahydro-quinoxaline] | 5.00 to 6.00 |
| Fc1ccccc1-c1nc2ccccc2nc1-c1ccccc1F [Compound 9, 2,3-Bis-(2-fluoro-phenyl)-quinoxaline] | 5.00 to 6.00 |

Results, then the compound that gave them:

| pEC50 | SMILES |
| --- | --- |
| > 6.00 | Oc1ccc(-c2nc3ccccc3nc2-c2ccccc2)cc1 [Compound 2, 4-(3-Phenyl-quinoxalin-2-yl)-phenol] |
| 5.00 to 6.00 | Fc1ccc(-c2nc3ccccc3nc2-c2cccc3[nH]ccc23)cc1F [Compound 4, 2-(3,4-Difluoro-phenyl)-3-(1H-indol-4-yl)-quinoxaline] |
| 5.00 to 6.00 | Fc1ccc(-c2nc3ccccc3nc2-c2ccccc2)cc1F [Compound 10, 2-(3,4-Difluoro-phenyl)-3-phenyl-quinoxaline] |
